Source: paper PMC9641054, “Antimicrobial activity of cationic antimicrobial peptides against stationary phase bacteria” (Frontiers in Microbiology, 2022)
≈ marks a conversion by molar mass, not a printed value. No end group written: not given here.

Legend:
Format in all cases: cell-based
[1] = tested on: Staphylococcus aureus SH1000; experiment: Killing experiment at 10x MIC, fast-growing (exponential) versus stationary phase bacteria in spent medium; details: for Killing fold-change 4 h (median) / Killing fold-change 24 h: S. aureus SH1000, exponentially growing versus stationary phase cultures, 10x MIC, ~2 × 10^6 CFU/ml, 37°C, five independent cultures; for Killing of stationary phase bacteria at 4 h (in words) / Killing of stationary phase bacteria at 24 h (in words): stationary phase in spent medium
Method: (§1) For exponentially growing bacteria, five independent cultures per treatment were diluted 1:100 from a 16-h overnight culture (by adding 100 μl to 10 ml of MHB medium in 50 ml Falcon tubes). Then, the bacteria were grown for 2 h for E. coli and 2.5 h for S. aureus, to reach approximately 2 × 10^8 CFU/ml. The cultures were then diluted 1/100 in fresh medium to reach approximately 2 × 10^6 CFU/ml. […] Volumes of 100 μl-sample were extracted at 4 and 24 h. The aliquots were diluted and plated to determine cell viability. Non-treated cells were used as a control. All incubations took place at 37°C with shaking.
(§2) In order to maintain bacteria in their non-dividing state, we generated a medium to carry out the killing assays. From the supernatant of 500 ml of 48-h culture from each bacterium, the cells were pelleted at 4000 ×g for 30 min. The pH of each culture was adjusted to match the original pH of 7.2. To remove additional cell debris, flagella rest and outer membrane vesicles that could potentially interfere with the activity of AMPs ([Manning and Kuehn, 2011]), the supernatants were ultracentrifuged at 100000 ×g during 16 h at + 4°C. Thereafter, 250 ml of the supernatant from each flask was carefully recovered, without perturbing the pellet, and aseptically filtrated using 0.22 μm syringe filters and 40 ml were transferred to sterile 50 ml-falcon tubes, that were stored at −20°C until use. We refer to this medium as spent medium.
(§3) For stationary phase bacteria, five independent cultures per treatment were used. Bacteria from 48-h cultures containing approximately 3 × 10^9 CFU/ml for E. coli and 2 × 10^9 CFU/ml for S. aureus were diluted in spent medium (see preparation above) to a final cell density of 2×10^6 CFU/ml. Then, the bacteria were treated identically to the fast-growing bacteria killing experiment described above.
(§4) Statistical testing and plots were done in R version 3.3.2 ([R Core Team, 2017]), using Rstudio version 1.0.143 ([R Development Core Team, 2015]). To compare killing rates between bacteria growing in exponential and stationary phase for each antimicrobial after 4 and 24 h of exposure, a Welch’s t-test was used. Values below the detection limit (zero colony counts) were imputed for statistical purposes assigning a value of 1.

Escherichia coli K12 [2] = experiment: as above; details: for Killing fold-change 4 h (median) / Killing fold-change 24 h: E. coli K12, exponentially growing versus stationary phase cultures, 10x MIC, ~2 × 10^6 CFU/ml, 37°C, five independent cultures; for Killing of stationary phase bacteria at 4 h (in words) / Killing of stationary phase bacteria at 24 h (in words): stationary phase in spent medium
Method: as §1, §2, §3, §4

[3] = tested on: Staphylococcus aureus SH1000; experiment: microbe, parasite or virus in culture; details: for MIC: Staphylococcus aureus, SH1000, read-out: MIC S. aureus SH1000
Method: (§5) The Escherichia coli K12 from Yale University Microbial Stock Center and Staphylococcus aureus SH1000 ([Horsburgh et al., 2002]) were used for all experiments. All cultures related to antimicrobial tests and experiments were carried out in Mueller-Hinton I broth (Sigma) devoid of cations. Both strains were routinely cultured in Lysogeny Broth (LB medium).
(§6) The minimal inhibitory concentration for each antimicrobial were determined according to CLSI recommendations by the microdilution method ([CLSI, 2018]) with minor modifications for antimicrobial peptides ([Giacometti et al., 2000]). For comparison, we kept these modifications also for antibiotics. Inoculum size that was adjusted to approximately 1 × 10^6 CFU/ml from a 2-h mid-exponential phase obtained by diluting 100 μl of overnight cultures in 10 ml of fresh medium in 50 ml Falcon tubes. The MIC was defined as the minimal antimicrobial concentration that inhibited growth, after 24 h of incubation in liquid MHB medium at 37°C. Polypropylene non-binding plates (96 wells, Th. Geyer, Germany) were used for all experiments.

Escherichia coli K12 [4] = experiment: microbe, parasite or virus in culture; details: for MIC: Escherichia coli, K12, read-out: MIC E. coli K12
Method: as §5, §6

[5] = microdilution, inoculum ~1 × 10^6 CFU/ml mid-exponential phase, MHB devoid of cations, 24 h, 37°C, polypropylene non-binding plates

Molecule	Killing fold-change 4 h (median) [1]	Killing fold-change 24 h [1]	Killing of stationary phase bacteria at 4 h (in words) ([1]; S. aureus, 10 × MIC)	Killing of stationary phase bacteria at 24 h (in words) ([1]; S. aureus, 10 × MIC)	Killing fold-change 4 h (median) (Escherichia coli K12 [2])	Killing fold-change 24 h (Escherichia coli K12 [2])	Killing of stationary phase bacteria at 4 h (in words) (Escherichia coli K12 [2]; E. coli, 10 × MIC)	Killing of stationary phase bacteria at 24 h (in words) (Escherichia coli K12 [2]; E. coli, 10 × MIC)	MIC [3, 5]	MIC (Escherichia coli K12 [4]; [5])	Killing of bacterial cultures (in words) ([1]; S. aureus, 10 × MIC, fast and slow-replicating bacteria, both time-points 4 and 24 h)	Killing of bacterial cultures (in words) (Escherichia coli K12 [2]; E. coli, 10 × MIC, fast and slow-replicating bacteria, both time-points 4 and 24 h)	MIC S. aureus SH1000 [3, 5]	MIC E. coli K12 (Escherichia coli K12 [4]; [5])	MIC S. aureus SH1000 ([3]; SH1000, 24 h)	MIC E. coli K12 (Escherichia coli K12 [4]; K12, 24 h)
CC1(C)S[C@@H]2[C@H](NC(=O)[C@H](N)c3ccccc3)C(=O)N2[C@H]1C(=O)O [Ampicillin]	13087.25	4,470,000	did not kill	poor killing capacity	595.18	4,150,000	did not kill	poor killing capacity	4 µg/mL (≈ 11.4 µM)	2 µg/mL (≈ 5.72 µM)						
O=C(O)c1cn(C2CC2)c2cc(N3CCNCC3)c(F)cc2c1=O [Ciprofloxacin]				reduced microbial count for both models with a significantly lower efficacy than killing fast-replicating cultures				reduced microbial count for both models with a significantly lower efficacy than killing fast-replicating cultures								
CNC(C)C1CCC(N)C(OC2C(N)CC(N)C(OC3OCC(C)(O)C(NC)C3O)C2O)O1 (centres unmarked) [Gentamicin]	8508.47	2,890,000		reduced microbial count for both models with a significantly lower efficacy than killing fast-replicating cultures	10380.62	317,000		reduced microbial count for both models with a significantly lower efficacy than killing fast-replicating cultures	4 µg/mL (≈ 8.38 µM)	1 µg/mL (≈ 2.09 µM)						
CC[C@H](C)[C@H](N)C(=O)N[C@@H](CC(C)C)C(=O)N1CCC[C@H]1C(=O)N[C@@H](Cc1c[nH]c2ccccc12)C(=O)N[C@@H](CCCCN)C(=O)N[C@@H](Cc1c[nH]c2ccccc12)C(=O)N1CCC[C@H]1C(=O)N[C@@H](Cc1c[nH]c2ccccc12)C(=O)N[C@@H](Cc1c[nH]c2ccccc12)C(=O)N1CCC[C@H]1C(=O)N[C@@H](Cc1c[nH]c2ccccc12)C(=O)N[C@@H](CCCNC(=N)N)C(=O)N[C@@H](CCCNC(=N)N)C(N)=O [Indolicidin]		1				1					completely killing	completely killing	8 µg/mL (≈ 4.2 µM)	16 µg/mL (≈ 8.39 µM)		
CC[C@H](C)[C@H](NC(=O)[C@H](CCCCN)NC(=O)[C@H](CCC(=O)O)NC(=O)[C@H](CCCCN)NC(=O)[C@H](CO)NC(=O)[C@H](CCCCN)NC(=O)[C@H](CCCNC(=N)N)NC(=O)[C@H](Cc1ccccc1)NC(=O)[C@H](Cc1ccccc1)NC(=O)[C@H](CC(=O)O)NC(=O)CNC(=O)[C@H](CC(C)C)NC(=O)[C@@H](N)CC(C)C)C(=O)NCC(=O)N[C@@H](CCCCN)C(=O)N[C@@H](CCC(=O)O)C(=O)N[C@@H](Cc1ccccc1)C(=O)N[C@@H](CCCCN)C(=O)N[C@@H](CCCNC(=N)N)C(=O)N[C@H](C(=O)N[C@H](C(=O)N[C@@H](CCC(N)=O)C(=O)N[C@@H](CCCNC(=N)N)C(=O)N[C@H](C(=O)N[C@@H](CCCCN)C(=O)N[C@@H](CC(=O)O)C(=O)N[C@@H](Cc1ccccc1)C(=O)N[C@@H](CC(C)C)C(=O)N[C@@H](CCCNC(=N)N)C(=O)N[C@@H](CC(N)=O)C(=O)N[C@@H](CC(C)C)C(=O)N[C@H](C(=O)N1CCC[C@H]1C(=O)N[C@@H](CCCNC(=N)N)C(=O)N[C@H](C(=O)N[C@@H](CCC(=O)O)C(=O)N[C@@H](CO)C(=O)O)[C@@H](C)O)C(C)C)[C@@H](C)CC)C(C)C)[C@@H](C)CC [LL-37]	0.66	1	some delay in killing		3.71	1	some delay in killing						8 µg/mL (≈ 1.78 µM)	4 µg/mL (≈ 0.89 µM)		
CC[C@H](C)[C@H](NC(=O)CN)C(=O)NCC(=O)N[C@@H](C)C(=O)N[C@H](C(=O)N[C@@H](CC(C)C)C(=O)N[C@@H](CCCCN)C(=O)N[C@H](C(=O)N[C@@H](CC(C)C)C(=O)N[C@H](C(=O)N[C@H](C(=O)NCC(=O)N[C@@H](CC(C)C)C(=O)N1CCC[C@H]1C(=O)N[C@@H](C)C(=O)N[C@@H](CC(C)C)C(=O)N[C@H](C(=O)N[C@@H](CO)C(=O)N[C@@H](Cc1c[nH]c2ccccc12)C(=O)N[C@H](C(=O)N[C@@H](CCCCN)C(=O)N[C@@H](CCCNC(=N)N)C(=O)N[C@@H](CCCCN)C(=O)N[C@@H](CCCNC(=N)N)C(=O)N[C@@H](CCC(N)=O)C(=O)N[C@@H](CCC(N)=O)C(N)=O)[C@@H](C)CC)[C@@H](C)CC)[C@@H](C)O)[C@@H](C)O)C(C)C)C(C)C [Melittin]		17	some delay in killing				some delay in killing						2 µg/mL (≈ 0.703 µM)	2 µg/mL (≈ 0.703 µM)		
GIGKFLKKAKKFGKAFVKILKK-NH2 (C-terminus assumed) [Pexiganan]	1.14	1	some delay in killing		2.53	1	some delay in killing								8 µg/mL	4 µg/mL
KWKLFKKIEKVGQNIRDGIIKAGPAVAVVGQATQIAK-NH2 (C-terminus assumed) [Cecropin A]	1.30	0.22	some delay in killing		1.21	27	some delay in killing									
